Experiments:
CDK9 = target: T1, CDK9 (Homo sapiens, UniProt P50750); experiment: Kinase selectivity profiling (focused panel), radioactive filter plate assay: CDK9; format: biochemical; settings: PDKtide, 0.25 μM ATP, 60 min
T1 construct: purchased Millipore 14-685
Protocol: The purpose of this assay is to determine the activity and selectivity of a compound of the invention on a selected range of human kinases which may result in undesirable side-effects when inhibited (Dy & Adjei 2013; Force & Kolaja 2011).
The IC50 value for off-target kinases is determined in radioactive filter plate assays. The principle of the assays consists in the measurement of incorporated ^33P into a peptide substrate upon phosphorylation by the kinase enzyme using [γ-^33P]ATP and ATP. Unincorporated ^33P is removed by loading the samples on a filter plate (using a harvester, PerkinElmer) and 6 subsequent washing steps. Incorporated ^33P in the peptide substrate is measured by a scintillation counter (Topcount, PerkinElmer) after addition of MicroScint™-20 (PerkinElmer, 6013621) to the filter plates.
5 μL of a water dilution series of test compound (starting from 20 μM or 6.6 μM highest concentration), from a 100% DMSO stock solution, 1/5 dilution, is added to the wells (final DMSO concentration of 1% in reaction assay). Enzyme and peptide substrate are used at optimized concentrations (cf. Table VI). The enzyme and substrate are diluted in assay buffer to a total volume of 11 μL. The reaction is started by addition of 9 μL of ATP+[γ-^33P]ATP, diluted in the same buffer as enzyme and substrate. The mixture is incubated at 30° C. The reaction is terminated by adding 25 μL of 150 mM phosphoric acid. Samples are transferred to filter plates and incorporated radioactivity is measured using a scintillation counter.
The incubation time, assay buffer composition, and concentrations of ATP, enzyme and substrate are reported in Table VI for example kinase off-target assays.
10 μM staurosporine (1% DMSO) is used as positive control (100% inhibition); vehicle (water+1% DMSO) as negative control (0% inhibition).

[1] = tested on: TNFα triggered MMP13 release in SW1353 cells; experiment: SW1353 cellular selectivity assay, TNFα trigger, MMP13 readout; format: cell-based, human; settings: TNFα trigger 10 ng/mL; for IC50: Homo sapiens; for TNFα trigger MMP13 PIN at 20 μM: percent inhibition at 20 μM compound
From the text: The aim of this assay is to evaluate the selectivity of compounds of the invention for the activated TLR/IRAK-4 pathway in an in vitro human cellular assay setting. SW1353 cells are from a chondrocytic cell line and are responsive to both the interleukin 1 (IL-1) and the TNFα cytokine triggers. Both cytokine triggers induce the expression of interleukin 6 (IL-6) and MMP13 by these cells. IL-6 and MMP13 releases are used as readouts in this assay and represent a measure for the level of inhibition of the TLR/IRAK-4 pathway by the tested compound.
SW1353 cells are cultured in DMEM supplemented with 10% FBS and 1% Penicillin/Streptomycin. Cells are incubated at 37° C. in a humidified atmosphere of 5% CO2 and subcultured twice a week. During subculturing, trypsin-EDTA is used to detach the cells, followed by a neutralization step with cell culture medium. After centrifugation (1,000 rpm during 5 min), the pellet is resuspended in cell culture medium and cells are counted using an automated cell counter (Invitrogen Countess™).
Cells are used at passage 16 and plated at a density of 15,000 cells per well in 120 μL cell culture medium in 96-well culture plates. Cells are allowed to attach during overnight incubation.
SW1353 cells are pre-incubated with test compound by addition of 15 μL of 10× concentrated compound solution for 2 h at 37° C. and 5% CO2. The compounds are tested at different concentrations and prepared by 3-fold serial dilutions from the 10 mM stock solution in DMSO followed by a 1/50 dilution step in cell culture medium. Final test concentrations in the assay start from 20 μM, with subsequent 3-fold serial dilutions with equal final DMSO concentrations of 0.2%. After the compound pre-incubation step, the SW1353 cells are triggered by addition of 15 μL of 10× concentrated IL-1f (Peprotech, 200-01B) or TNFα trigger (Peprotech, 300-01A) to the wells with final assay volume of 150 μL per well and final trigger concentration of 1 ng/mL and 10 ng/mL, respectively. Negative controls are adjusted with equal DMSO concentrations without trigger. The assay plates are then incubated in a humidified incubator at 37° C. and 5% CO2. Cell supernatants are harvested 24 h and 48 h later by transferring the cell medium into a V-bottom polypropylene 96-well plate and stored at −80° C. until ELISA readout.
The levels of secreted MMP13 in the cell supernatants are quantified in an antibody capture activity assay. […] After incubation for 1 h at 37° C., fluorescence of the converted substrate is measured with a PerkinElmer EnVision® (excitation wavelength: 320 nm, emission wavelength: 405 nm).
All controls are measured within the linear range of the human IL-6 and MMP13 standard curve of the ELISA. […]

T1 sequence (P50750 whole entry): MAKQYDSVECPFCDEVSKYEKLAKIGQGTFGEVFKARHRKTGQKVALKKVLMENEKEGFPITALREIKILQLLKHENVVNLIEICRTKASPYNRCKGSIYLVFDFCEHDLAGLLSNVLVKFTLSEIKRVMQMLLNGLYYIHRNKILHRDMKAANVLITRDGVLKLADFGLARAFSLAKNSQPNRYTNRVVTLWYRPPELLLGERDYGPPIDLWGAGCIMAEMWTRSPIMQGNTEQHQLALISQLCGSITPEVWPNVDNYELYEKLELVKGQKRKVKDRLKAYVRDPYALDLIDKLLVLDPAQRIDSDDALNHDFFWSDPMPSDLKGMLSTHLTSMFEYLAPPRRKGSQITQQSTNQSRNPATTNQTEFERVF
T1 sequence (O60563 whole entry partner): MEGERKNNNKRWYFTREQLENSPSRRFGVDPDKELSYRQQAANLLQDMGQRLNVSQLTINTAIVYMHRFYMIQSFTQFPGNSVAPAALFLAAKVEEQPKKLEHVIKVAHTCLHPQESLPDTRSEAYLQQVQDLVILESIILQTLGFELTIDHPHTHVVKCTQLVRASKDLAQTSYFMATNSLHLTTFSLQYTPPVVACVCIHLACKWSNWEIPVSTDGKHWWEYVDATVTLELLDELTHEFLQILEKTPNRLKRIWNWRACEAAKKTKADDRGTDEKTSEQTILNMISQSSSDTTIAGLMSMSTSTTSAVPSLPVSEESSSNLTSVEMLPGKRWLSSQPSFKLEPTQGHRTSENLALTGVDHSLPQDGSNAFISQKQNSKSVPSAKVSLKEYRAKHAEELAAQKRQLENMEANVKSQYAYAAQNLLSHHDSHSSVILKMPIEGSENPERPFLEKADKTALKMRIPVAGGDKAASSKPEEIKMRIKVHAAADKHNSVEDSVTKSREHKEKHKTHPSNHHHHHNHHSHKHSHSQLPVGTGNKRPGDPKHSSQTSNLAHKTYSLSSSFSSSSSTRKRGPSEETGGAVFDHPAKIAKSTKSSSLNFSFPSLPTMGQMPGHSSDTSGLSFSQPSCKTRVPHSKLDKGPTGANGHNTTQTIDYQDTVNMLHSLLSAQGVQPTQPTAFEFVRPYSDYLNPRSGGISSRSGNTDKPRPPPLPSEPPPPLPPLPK

| IC50 (CDK9) [nM] | IC50 [1] [nM] | Compound | TNFα trigger MMP13 PIN at 20 μM [1] |
| --- | --- | --- | --- |
| > 1330 | > 20000 | N#Cc1ccc(-n2cnc3cc(OCCOCCO)c(NC4CCOCC4)nc32)nc1 [Compound 1, 6-[6-[2-(2-hydroxy-ethoxy)-ethoxy]-5-(tetrahydro-pyran-4-ylamino)-imidazo[4,5-b]pyridin-3-yl]-nicotinonitrile] | [26%] |
| 1150 | > 20000 | C[C@]1(O)CC[C@@H](Nc2nc3c(cc2OCCOCCO)ncn3-c2ccc(C#N)cn2)CC1 [Compound 12, 6-[6-[2-(2-hydroxyethoxy)ethoxy]-5-[((cis-1,4)-4-hydroxy-4-methylcyclohexyl)amino]imidazo[4,5-b]pyridin-3-yl]pyridine-3-carbonitrile] | [36%] |

From patent publication US10508111B2, “6-[5-amino-6-(2-ethoxyethoxy)-imidazo[4,5-B]pyridin-3-yl]-nicotinonitrile derivatives and their use as IRAK inhibitors” (GALAPAGOS NV, priority 2015, dated 2019)
